Assay [1] deals with male C57BL/6 mice. In words: Inhibition of icilin induced jumping in mice. In kind it is in vivo. The note with it: given 1 hour before icilin (i.p. 20 mg/kg), jumps counted 10 minutes post-icilin. How it is done:
Icilin Biochemical Challenge Models
Inhibition of Icilin Induced Jumping in Mice
Example compounds at doses ranging from 0.01 to 10 mg/kg were administered to male C57BL/6 mice (18-25 g, Taconic, n=10/treatment) 1 hour before icilin to assess the ability to block the spontaneous jumps induced by icilin (i.p. suspended in 100% PEG400 at 20 mg/kg, 5 mL/kg). The total number of jumps was recorded during the 10 minutes post-icilin administration based on the number of photocell beam breaks from the vertical array of open field boxes (Kinder Scientific) while movement of the mice was restricted within a clear Plexiglas® cylinder 9.5 cm diameter×30 cm height.

For assay [2], the target named is T1, human TRPM8 (Homo sapiens, UniProt Q7Z2W7).
T1 construct: expressed in transfected cells; host or cells: Chinese hamster ovary (CHO) cells, T-REx tetracycline-inducible expression system (Invitrogen), co-transfected with pcDNA3.1 jellyfish aequorin
In words: Luminescence readout assay for measuring intracellular calcium (aequorin), hTRPM8 antagonism. The format is cell-based. The note with it: CHO cell line expressing human TRPM8 and aequorin; activation by icilin, L-menthol or cold buffer (table does not say which). In general terms: Calcium assays in cells follow changes in intracellular calcium, usually with a dye or a luminescent sensor.

T1 sequence (Q7Z2W7 whole entry): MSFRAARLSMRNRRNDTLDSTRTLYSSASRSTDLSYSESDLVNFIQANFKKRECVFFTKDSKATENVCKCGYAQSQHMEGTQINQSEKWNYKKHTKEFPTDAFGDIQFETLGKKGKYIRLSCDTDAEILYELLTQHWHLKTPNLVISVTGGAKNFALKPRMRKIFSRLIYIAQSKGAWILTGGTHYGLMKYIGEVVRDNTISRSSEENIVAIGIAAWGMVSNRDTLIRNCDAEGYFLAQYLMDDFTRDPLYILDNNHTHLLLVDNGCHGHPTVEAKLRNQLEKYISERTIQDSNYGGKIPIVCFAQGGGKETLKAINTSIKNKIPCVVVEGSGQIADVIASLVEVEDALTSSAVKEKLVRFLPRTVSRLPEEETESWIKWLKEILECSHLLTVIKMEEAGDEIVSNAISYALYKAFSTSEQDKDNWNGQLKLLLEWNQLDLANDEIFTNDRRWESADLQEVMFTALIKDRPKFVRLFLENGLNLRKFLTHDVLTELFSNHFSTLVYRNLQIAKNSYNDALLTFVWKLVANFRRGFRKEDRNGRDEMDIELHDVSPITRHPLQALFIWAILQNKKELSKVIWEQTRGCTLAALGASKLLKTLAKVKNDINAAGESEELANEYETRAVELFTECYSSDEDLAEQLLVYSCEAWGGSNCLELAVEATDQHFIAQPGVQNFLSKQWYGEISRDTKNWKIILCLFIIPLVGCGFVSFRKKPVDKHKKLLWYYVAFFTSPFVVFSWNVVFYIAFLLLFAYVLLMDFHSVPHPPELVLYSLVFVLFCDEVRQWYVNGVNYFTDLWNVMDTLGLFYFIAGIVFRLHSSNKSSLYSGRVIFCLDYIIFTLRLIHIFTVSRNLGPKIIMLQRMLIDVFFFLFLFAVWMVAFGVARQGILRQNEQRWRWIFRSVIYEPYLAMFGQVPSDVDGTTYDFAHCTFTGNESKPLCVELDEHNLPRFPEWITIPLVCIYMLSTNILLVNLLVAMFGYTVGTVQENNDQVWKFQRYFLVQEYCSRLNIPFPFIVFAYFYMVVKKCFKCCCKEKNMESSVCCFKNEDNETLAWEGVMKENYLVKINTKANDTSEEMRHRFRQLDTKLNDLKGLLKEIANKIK

For `O=C(Nc1cccnc1)N[C@@H](c1ccc(C(F)(F)F)c(F)c1)c1ncccc1C(F)(F)F` [Example 1, (S)-1-((3-Fluoro-4-(trifluoromethyl)phenyl)(3-(trifluoromethyl)-pyridin-2-yl)methyl)-3-(pyridin-3-yl)urea bis(2,2,2-trifluoroacetate)], the “% Inhibition of Mouse Jumping” value in assay [1] (dose 10 mg/kg) is recorded as 75%. The IC50 in assay [2] was determined as 23 nM.

With `O=C(Nc1cccnc1)N[C@@H](c1ccc(C(F)(F)F)c(F)c1)c1ncccc1F` [Example 29, (S)-1-((3-fluoro-4-(trifluoro-methyl)-phenyl)(3-fluoropyridin-2-yl)methyl)-3-(pyridin-3-yl)urea], the “% Inhibition of Mouse Jumping” value in assay [1] (dose 10 mg/kg) is reported as 96%. Moreover, in assay [2], the IC50 was 17 nM. With `O=C(Nc1cccnc1)N[C@@H](c1ccc(C(F)(F)F)cc1)c1ncccc1C(F)(F)F` [Example 44, (S)-1-(pyridin-3-yl)-3-((4-(trifluoro-methyl)-phenyl)(3-(trifluoro-methyl)-pyridin-2-yl)-methyl)urea], in assay [1] (dose 10 mg/kg), the “% Inhibition of Mouse Jumping” value stood at 74%. For the same compound, the IC50 in assay [2] was 23 nM. For `CC#Cc1cccnc1[C@@H](NC(=O)Nc1cccnc1)c1ccc(C(F)(F)F)cc1` [Example 51, (S)-1-((3-(prop-1-yn-1-yl)pyridin-2-yl)(4-(trifluoro-methyl)-phenyl)-methyl)-3-(pyridin-3-yl)-urea], in that order: 76% and 37 nM. In the case of `CC1(C)C[C@H]1c1cccnc1[C@@H](NC(=O)Nc1cccnc1)c1ccc(C(F)(F)F)cc1` [Example 61, 1-((S)-(3-((R)-2,2-dimethylcyclopropyl)-pyridin-2-yl)-(4-(trifluoro-methyl)-phenyl)-methyl)-3-(pyridin-3-yl)-urea], the “% Inhibition of Mouse Jumping” value in assay [1] (dose 10 mg/kg) worked out at 90%. In addition, in assay [2], the IC50 was found to be 62 nM. With `C[C@H](NC(=O)N[C@@H](c1ccc(C(F)(F)F)c(F)c1)c1ncccc1C(F)(F)F)C(F)(F)F` [Example 151, 1-((S)-(3-fluoro-4-(trifluoro-methyl)-phenyl)(3-(trifluoro-methyl)-pyridin-2-yl)-methyl)-3-((S)-1,1,1-trifluoro-propan-2-yl)-urea (2,2,2-trifluoro-acetate)], the “% Inhibition of Mouse Jumping” value in assay [1] (dose 3 mg/kg) is 30%. Further, the IC50 in assay [2] worked out at 39 nM. For `Cc1cc(C)c(NC(=O)N[C@@H](c2ccc(C(F)(F)F)cc2)c2ncccc2C(F)(F)F)c(C)c1` [Example 186, (S)-1-mesityl-3-((4-(trifluoro-methyl)phenyl) (3-(trifluoro-methyl)pyridin-2-yl)methyl)urea (2,2,2-trifluoro-acetate)], the IC50 in assay [2] is 1110 nM. Still for that read-out and setting: with `CCOC(=O)c1ccc(NC(=O)N[C@@H](c2ccc(C(F)(F)F)cc2)c2ncccc2C(F)(F)F)cc1` [Example 187, (S)-ethyl 4-(3-((4-(trifluoro-methyl)phenyl) (3-(trifluoro-methyl)pyridin-2-yl)methyl)ureido)benzoate (2,2,2-trifluoro-acetate)] the figure was 1550 nM. On the same count and under the same terms, with `O=C(Nc1cccnc1)N[C@@H](c1ccc(OC(F)(F)F)c(F)c1)c1ncccc1F` [Example 188, (S)-1-((3-fluoro-4-(trifluoro-methoxy)phenyl) (3-fluoropyridin-2-yl)methyl)-3-(pyridin-3-yl) urea] the figure was 7 nM.

The IC50 is the concentration that inhibits the measured activity by half.

For the origin of these results see patent publication US8778941B2, “TRPM8 antagonists and their use in treatments” (AMGEN Inc., priority 2011, dated 2014).
